# Laboratory results taken from patent US8278349B2, “Cancer treatment using FTS and 2-deoxyglucose” (Ramot at Tel-Aviv University Ltd., priority 2005, dated 2012).
# Legend:
# [1] = test system: human glioblastoma cell line U373; assay: Cell number from phase contrast images, U373; type: cell-based; details: single or combined treatment
# Protocol: (§1) All materials for cell culture and determination of cell growth and death were detailed in earlier publications. [Blum, R., Jacob-[…]. and Kloog, Y., Cancer Res 65:999-1006 (2005); […]., Jacob-[…]. and Kloog, Y., Clin Cancer Res 11:4321-30 (2005)]. FTS was provided by Concordia Pharmaceuticals, Inc. 2DG was purchased from Sigma (cat #D3179). Cells were maintained in DMEM/10% FCS at a constant temperature of 37° C. in a humidified atmosphere of 95% air/5% CO2. Cells were plated in 1 ml DMEM/5% FCS at a density of 10,000 in 24 wells plates, and treated 24 hours (h) later with 50 μM or 75 μM FTS or with the vehicle (0.1% Me2SO). Forty-eight (48) h later the medium was replaced by a medium containing either 10 mM glucose or 5 mM glucose plus 5 mM 2DG. […] Following incubation for 24 or 48 h, as specified in each experiment, the cells were stained with Hoechst 33258 (1 μg/mL) to determine the extent of cell death; the cells were incubated with the reagent for 5 min and stained nuclei were visualized by a fluorescence microscope. […] Data were collected by imaging each well then analyzed as follows: the total number of cells was calculated of the phase contrast images and the number of dead cells was calculated of the fluorescence images. The percentage of Hoechst stained dead cells ([dead cells/total number of cells]×100) was calculated and presented as means±SD.
# [2] = test system: primary pancreatic tumor cell line pp 78; assay: Cell death by Hoechst 33258 staining, pp 78; type: cell-based; details: single-drug or combined treatment
# Protocol: as §1
# [3] = test system: human glioblastoma cell line U373; assay: Cell death by Hoechst 33258 staining, U373; type: cell-based; details: single or combined treatment
# Protocol: as §1
# [4] = test system: primary pancreatic tumor cell line pp109; assay: Cell number from phase contrast images, pp109; type: cell-based
# Protocol: (§2) All materials for cell culture and determination of cell growth and death were detailed in earlier publications. [Blum, R., Jacob-Hirsch, J., Amariglio, N., Rechavi, G. and Kloog, Y., Cancer Res 65:999-1006 (2005); Yaari, S., Jacob-Hirsch, J., Amariglio, N., Haklai, R., Rechavi, G. and Kloog, Y., Clin Cancer Res 11:4321-30 (2005)]. FTS was provided by Concordia Pharmaceuticals, Inc. 2DG was purchased from Sigma (cat #D3179). Cells were maintained in DMEM/10% FCS at a constant temperature of 37° C. in a humidified atmosphere of 95% air/5% CO2. Cells were plated in 1 ml DMEM/5% FCS at a density of 10,000 in 24 wells plates, and treated 24 hours (h) later with 50 μM or 75 μM FTS or with the vehicle (0.1% Me2SO). […] Following incubation for 24 or 48 h, as specified in each experiment, the cells were stained with Hoechst 33258 (1 μg/mL) to determine the extent of cell death; the cells were incubated with the reagent for 5 min and stained nuclei were visualized by a fluorescence microscope. […]
# (§3) All experiments were performed and repeated at least four times. Data were collected by imaging each well then analyzed as follows: the total number of cells was calculated of the phase contrast images and the number of dead cells was calculated of the fluorescence images. The percentage of Hoechst stained dead cells ([dead cells/total number of cells]×100) was calculated and presented as means±SD.
# [5] = test system: primary pancreatic tumor cell line pp161; assay: Cell death by Hoechst 33258 staining, pp161; type: cell-based; details: single-drug or combined treatment
# Protocol: as §1
# [6] = test system: human glioblastoma cell line U87; assay: Cell death by Hoechst 33258 staining, U87; type: cell-based; details: single or combined treatment
# Protocol: as §1
# [7] = test system: primary pancreatic tumor cell line pp109; assay: Cell death by Hoechst 33258 staining, pp109; type: cell-based; details: single-drug or combined treatment
# Protocol: as §1
# [8] = test system: pancreatic carcinoma cell line panc-1; assay: Cell death by Hoechst 33258 staining, panc-1; type: cell-based; details: for percentage of dead cells: panc-1
# Protocol: All materials for cell culture and determination of cell growth and death were detailed in earlier publications. [Blum, R., Jacob-[…]. and Kloog, Y., Cancer Res 65:999-1006 (2005); […]., Jacob-[…]. and Kloog, Y., Clin Cancer Res 11:4321-30 (2005)]. FTS was provided by Concordia Pharmaceuticals, Inc. 2DG was purchased from Sigma (cat #D3179). Cells were maintained in DMEM/10% FCS at a constant temperature of 37° C. in a humidified atmosphere of 95% air/5% CO2. Cells were plated in 1 ml DMEM/5% FCS at a density of 10,000 in 24 wells plates, and treated 24 hours (h) later with 50 μM or 75 μM FTS or with the vehicle (0.1% Me2SO). Forty-eight (48) h later the medium was replaced by a medium containing either 10 mM glucose or 5 mM glucose plus 5 mM 2DG. The FTS treated groups were replenished with the drug and the controls with 0.1% Me2SO. Following incubation for 24 or 48 h, as specified in each experiment, the cells were stained with Hoechst 33258 (1 μg/mL) to determine the extent of cell death; the cells were incubated with the reagent for 5 min and stained nuclei were visualized by a fluorescence microscope. Additionally, phase contrast images were taken. All experiments were performed and repeated at least four times. Data were collected by imaging each well then analyzed as follows: the total number of cells was calculated of the phase contrast images and the number of dead cells was calculated of the fluorescence images. The percentage of Hoechst stained dead cells ([dead cells/total number of cells]×100) was calculated and presented as means±SD.
# [9] = test system: human glioblastoma cell line U87; assay: Cell number from phase contrast images, U87; type: cell-based; details: single or combined treatment
# Protocol: as §1
# [10] = test system: primary pancreatic tumor cell line pp161; assay: Cell number from phase contrast images, pp161; type: cell-based
# Protocol: as §2, §3
# [11] = test system: primary pancreatic tumor cell line pp 78; assay: Cell number from phase contrast images, pp 78; type: cell-based
# Protocol: as §2, §3
# [12] = test system: pancreatic carcinoma cell line panc-1; assay: Cell number from phase contrast images, panc-1; type: cell-based
# Protocol: as §2, §3
# [13] = test system: GBM cells; details: reported (Blum 2005; Yaari 2005); cited from earlier work
# [14] = test system: panc-1 cells; details: cited from earlier work
# [15] = test system: Mia Paca cells; details: cited from earlier work
# [16] = previously shown (Kloog and Cox 2000)
smiles,measurement,setting,value
"OCC1OC(O)CC(O)C1O [2DG, 2-deoxy-D-glucose, reference compound]",total cell number,[1],induced a decrease in total cell number
same,cell death above the levels observed in the controls,[2],did not cause a significant increase in death
same,cell death,[3],no significant increase in cell death
same,decrease in cell number,"[4]; 2DG alone, compared with FTS","decrease in cell number, but to a lower extent"
same,cell death above the levels observed in the controls,[5],did not cause a significant increase in death
same,cell death,[6],no significant increase in cell death
same,cell death above the levels observed in the controls,[7],induced death
same,cell survival,"[8]; 2DG (5 mM) combined with equimolar glucose, cell death similar to controls (3%)",did not affect cell survival
same,percentage of dead cells,[8]; 2DG alone (5 mM glucose plus 5 mM 2DG),3%
same,total cell number,[9],induced a decrease in total cell number
same,decrease in cell number,"[10]; 2DG alone, compared with FTS","decrease in cell number, but to a lower extent"
same,decrease in cell number,"[11]; 2DG alone, compared with FTS","decrease in cell number, but to a lower extent"
same,decrease in cell number,"[12]; 2DG alone, compared with FTS","decrease in cell number, but to a lower extent"
"CC(C)=CCC/C(C)=C/CC/C(C)=C/CSc1ccccc1C(=O)O [FTS, farnesylthiosalicylic acid]",total cell number,[1],induced a decrease in total cell number
same,growth arrest and cell death,[13],induce both growth arrest and cell death
same,cell death,[14]; FTS alone,did not induce death
same,anchorage-dependent and anchorage-independent growth,[14]; [16],inhibit anchorage-dependent and anchorage-independent growth
same,cell death above the levels observed in the controls,[2],did not cause a significant increase in death
same,cell death,[3],no significant increase in cell death
same,decrease in the total number of cells,[4]; 75 μM FTS alone,~2 fold
same,cell death above the levels observed in the controls,[5],did not cause a significant increase in death
same,cell death,[6],no significant increase in cell death
same,cell death above the levels observed in the controls,[7],induced death
same,cell death,[15]; FTS alone,did not induce death
same,anchorage-dependent and anchorage-independent growth,[15]; [16],inhibit anchorage-dependent and anchorage-independent growth
same,percentage of dead cells,[8]; 50 μM FTS alone (10 mM glucose),4%
same,percentage of dead cells,[8]; 75 μM FTS alone (10 mM glucose),7%
same,total cell number,[9],induced a decrease in total cell number
same,decrease in the total number of cells,[10]; 75 μM FTS alone,~2 fold
same,decrease in the total number of cells,[11]; 75 μM FTS alone,~2 fold
same,decrease in cell number,[12]; 75 μM FTS alone,~2 fold
